Like-named read-outs stand apart in the source and are kept apart here. Residues, ends and D or L forms follow the SMILES beside them. No end group written: not given here. A value given as a limit tells only on which side of the number the result lay.

In general, MBC refers to the lowest tested concentration that kills the bacteria rather than only halting them. A lower MBC goes with greater bactericidal potency.

Data set [1] relates to Staphylococcus aureus. To be noted: 1x10^5 colony-forming units; cited from earlier work.
For data set [2], the system named is Ca^2+-saturated calmodulin. To be noted: host cell Ca^2+-saturated calmodulin; cited from earlier work.
In another data set the test system is Pseudomonas aeruginosa. Conditions: 1x10^5 colony-forming units; cited from earlier work.
Data set [3] deals with differentiated primary human airway epithelial cells. The data set can be described thus: Co-culture model: epithelial cell toxicity by transepithelial resistance. The format is cell-based. To be noted: at a decrease in bacterial counts by two orders of magnitude, Figure 9. An excerpt: The antimicrobial peptides of the invention display selective toxicity to target microorganisms and minimal toxicity to mammalian cells. Determining the toxicity of the peptides claimed in this invention on mammalian cells is preferably performed using tissue culture assays. For mammalian cells, such assay methods include, inter alia, trypan blue exclusion and MTT assays (see Moore et al., 1994, Peptide Research 7:265-269). […] In addition, the disruption of the transepithelial resistance (Rte) of a cell monolayer that have formed tight junctions can be monitored. […]
Preparation of eukaryotic cells. […] In order to release viable bacteria, trypsin/EDTA was added and these preparations were plated on standard bacteriologic media to quantify bacterial survival. Similarly prepared cells were monitored for peptide toxicity by measuring transepithelial resistance. […]
Based on above in vitro findings, WLSA-5 (SEQ ID NO:3) was tested in a scenario that more accurately assessed its selective toxicity. […] The ability of peptide to kill bacteria is monitored as a function of viable bacteria associated with the epithelial cells after peptide exposure. […]

Data set [4] relates to Staphylococcus aureus. The data set can be described thus: Bacterial lysis assay (broth dilution), minimal bactericidal concentration. It counts as cell-based. Conditions: 10 mM phosphate buffer, 99.9% killing. An excerpt: (§1) The assays for growth inhibition of a microbial target can be used to derive a minimum bactericidal concentration (MBC) value for the peptide, i.e., the concentration of peptide required to kill 99.9% of the microbial sample being tested. This value is well known to those in the art as representative of the effectiveness of a particular antimicrobial agent (e.g., an antibiotic) against a particular organism or group of organisms. In assays to detect the MBC of a peptide, growth inhibition of a bacterial population also can be measured with reference to the number of colony forming units (cfu) after exposure to a peptide relative to a control experiment without a peptide.
(§2) Bacterial lysis assay. Bacterial lysis assays were conducted in a manner similar to that described previously (Lehrer, R. I., M. E. Selsted, D. Szklarek, and F. J. 1983. Infect. Immun. 42: 10-4, 1983; Miller, M. A., R. F. Garry, J. M. Jaynes, and R. C. Montelaro, AIDS Res Hum Retroviruses 7: 511-519, 1991). Bacterial suspensions were cultured in Luria-Bertani Broth to mid-log growth phase and washed by two cycles of centrifugation and suspension in 10 mM phosphate buffer. The Abs600 of the suspension was adjusted with 10 mM phosphate buffer such that, upon dilution, 5-10x10^5 cfu/mL would be treated in the assay. Bacteria were incubated for 1h with two-fold dilutions of peptides (100µM to 100 nM) in 96-well plates using 10 mM phosphate buffer, pH 7.2, as a diluent. Ten-fold dilutions of bacteria were performed to 1:1000; a 100µl aliquot from each condition was spread on the surface of tryptic soy agar plates (Difco, Detroit, Mich.) which were incubated overnight. Colonies of surviving bacteria (cfu, colony-forming units) were counted and compared to untreated controls to determine the amount of peptide-induced killing under each condition. Log killing is defined as the log of the ratio of cfu present before and after treatment with peptide. The minimal bactericidal concentration, MBC, is the peptide concentration at which 99.9% (three log) killing is achieved (Pearson et al., Antimicrob. Agents Chemother. 18: 699-708, 1980).
(§3) Results. Representative gram positive (S. aureus) and gram negative (P. aeruginosa) clinical isolates were used as the index bacteria to survey the peptides described in this invention.
(§4) A limitation of many host-derived antimicrobial peptides is their decreased activity at physiologic (150 mM) NaCl concentration. See Friedrich et al., Antimicrobial Agents and Chemotherapy 43:1542-1548. The activity of eLLPs and LBUs of this invention were compared to an expanded list of clinical bacterial isolates. These are summarized in Table 2 by comparing their MBCs in phosphate buffer alone (low salt) and phosphate buffer containing 150 mM NaCl (physiologic conditions). Inspection of this table would lead one skilled in the art to conclude that the activity of eLLPs and LBUs compare favorably to the host derived antimicrobial peptides as it relates to the spectrum and potency of antimicrobial activity.
Background: Dilution methods test growth across graded concentrations, often in twofold steps.

The next data set concerns Psuedomonas aeruginosa. Described as above. To be noted: 10 mM phosphate buffer, 99.9% killing. It counts as cell-based, Pseudomonas aeruginosa.
From the text: as §1, §2, §3, §4

The test system of data set [5] is Methicillin Resistant S. aureus. The format is cell-based. To be noted: 10 mM phosphate buffer, 99.9% killing.
From the text: as §1, §2, §4

In the case of `CC[C@H](C)[C@H](NC(=O)[C@H](C)NC(=O)[C@H](CCCNC(=N)N)NC(=O)[C@H](CS)NC(=O)[C@H](C)NC(=O)CNC(=O)[C@H](CCC(N)=O)NC(=O)[C@@H](NC(=O)[C@@H](NC(=O)[C@H](CCC(=O)O)NC(=O)[C@@H](NC(=O)[C@@H](NC(=O)[C@@H](N)CCCNC(=N)N)C(C)C)[C@@H](C)CC)C(C)C)C(C)C)C(=O)N[C@@H](CCCNC(=N)N)C(=O)N[C@@H](Cc1c[nH]cn1)C(=O)N[C@H](C(=O)N1CCC[C@H]1C(=O)N[C@@H](CCCNC(=N)N)C(=O)N[C@@H](CCCNC(=N)N)C(=O)N[C@H](C(=O)N[C@@H](CCCNC(=N)N)C(=O)N[C@@H](CCC(N)=O)C(=O)NCC(=O)N[C@@H](CC(C)C)C(=O)N[C@@H](CCC(=O)O)C(=O)N[C@@H](CCCNC(=N)N)C(=O)N[C@H](C(=O)N[C@@H](CC(C)C)C(=O)O)[C@@H](C)CC)[C@@H](C)CC)[C@@H](C)CC` [LLP1] (H-RVIEVVQGACRAIRHIPRRIRQGLERIL-OH; N-terminus and C-terminus assumed), the “time to nearly sterilize a suspension” value with Staphylococcus aureus [1] and in the data set with Pseudomonas aeruginosa was no more than 60 s in each case. Besides, in data set [2], the affinity for calmodulin entry is “near nanomolar affinity”.

For `CC[C@H](C)[C@H](NC(=O)[C@H](C)NC(=O)[C@H](CCCNC(=N)N)NC(=O)[C@H](CS)NC(=O)[C@H](Cc1c[nH]c2ccccc12)NC(=O)[C@H](CCCNC(=N)N)NC(=O)[C@H](CCC(N)=O)NC(=O)[C@@H](NC(=O)[C@@H](NC(=O)[C@H](CCCNC(=N)N)NC(=O)[C@@H](NC(=O)[C@H](Cc1c[nH]c2ccccc12)NC(=O)[C@@H](N)CCCNC(=N)N)[C@@H](C)CC)C(C)C)C(C)C)C(=O)N[C@@H](CCCNC(=N)N)C(=O)N[C@@H](Cc1c[nH]cn1)C(=O)N[C@H](C(=O)N[C@@H](Cc1c[nH]c2ccccc12)C(=O)N[C@@H](CCCNC(=N)N)C(=O)N[C@@H](CCCNC(=N)N)C(=O)N[C@H](C(=O)N[C@@H](CCCNC(=N)N)C(=O)N[C@@H](CCC(N)=O)C(=O)NCC(=O)N[C@@H](CC(C)C)C(=O)N[C@@H](CCCNC(=N)N)C(=O)N[C@@H](CCCNC(=N)N)C(=O)N[C@@H](Cc1c[nH]c2ccccc12)C(=O)N[C@@H](CC(C)C)C(=O)N[C@@H](CCCNC(=N)N)C(=O)N[C@H](C(=O)N[C@H](C(=O)O)C(C)C)C(C)C)[C@@H](C)CC)[C@@H](C)CC` [WLSA-5] (H-RWIRVVQRWCRAIRHIWRRIRQGLRRWLRVV-OH), the “change in transepithelial resistance” value in data set [3] is “less than 50%”.

“RVVRVVRRWVRRVRRVWRRVVRVVRRWVRRVRRVWRRVVRVVRRWRVV [WLBU-4, RVVRVVRRWVRRVRRVWRRVVRVVRRRVVRVVRRWRVV RWVRR VRRVW]”: the MBC against Staphylococcus aureus [4] (0 mM NaCl) was 3,000 nanomolar; against Staphylococcus aureus [4] (150 mM NaCl), 600 nM; against Psuedomonas aeruginosa (0 mM NaCl), 1.5 µM; with Psuedomonas aeruginosa (150 mM NaCl), 0.4 µM; in data set [5] (0 mM NaCl), 1.5 µM; in data set [5] (150 mM NaCl), 0.2 µM.

The values above are taken from patent EP1368050B1, “VIRUS DERIVED ANTIMICROBIAL PEPTIDES” (priority 2001, dated 2008).
